In patent publication US10039806B2, “Methods and compositions for treating antiprogestin-resistant cancers” (Fundación Sales, priority 2011, dated 2018):

Key:
[1] = tested on: IBH-6-PRA tumors; test: Xenograft in nude mice; format: in vivo, human
Excerpt: BH-6 cell line was developed from an invasive ductal breast carcinoma (1). IBH-6 cells express basal levels of hormone receptors, they are tumorigenic and in vivo express higher levels of PRB than PRA (2). Cells were transfected with human PRB, PRA (pSG5-PRB, pSG5-PRA, kindly provided by K. Horwitz) or with the empty vector (pSG5), together with a plasmid encoding the neomycin resistance gene pIRES-N1(3), using Lipofectamine transfection reagent (Invitrogen) following the manufacturer's instructions. Transfected and selected cells were cultured in medium supplemented with […] G418 (neomycin analogue, GIBCO). The expression of PRB and PRA were analyzed by western blot and immunofluorescence (using Ab7 and Ab6 antibodies from Thermo Fisher). T47D-YA or YB were kindly provided by K. Horwitz and cultured as previously described (4).
Transfected and selected cells were grown up to confluence, washed with PBS, detached with 0.25% trypsin, centrifuged at 1000 rpm for 10 min and resuspended in a final concentration of 10^6 (IBH-6) or 5×10^6 (T47D) cells per 100 μl of culture medium. The cells were sc inoculated into the right flank of nu/nu (IBH-6) or NOD/LtSz-scid/IL-2Rgamma null (T47D-YA or -YB cells) female mice. Only in experiments involving T47D cells E2 silastic pellets (0.5 mg) were implanted sc into the back of the animals one week prior tumor cell inoculation and 70 μl of Matrigel were mixed with the cell suspension at the moment of injection. MFP (6 mg) silastic pellets were sc implanted when tumors reached 20-40 mm^2. For T47D cells, experiments were repeated inoculating both cell types (T47D-YA or -YB) simultaneously in the left or right flank of the mouse, respectively.
Cytosolic or nuclear extracts were processed for western blots as described previously (5). The cells were lysed using Mammalian Protein Extraction Reagent (Pierce, Rockford, Ill.) according to the manufacturer's instructions. […] The band intensities from 3-4 different samples in different western blots were quantified using Image Quant software.

[2] = target: T1, glucocorticoid receptor (Homo sapiens, UniProt P04150); conditions: cited from earlier work
T1 sequence (P04150 1-777): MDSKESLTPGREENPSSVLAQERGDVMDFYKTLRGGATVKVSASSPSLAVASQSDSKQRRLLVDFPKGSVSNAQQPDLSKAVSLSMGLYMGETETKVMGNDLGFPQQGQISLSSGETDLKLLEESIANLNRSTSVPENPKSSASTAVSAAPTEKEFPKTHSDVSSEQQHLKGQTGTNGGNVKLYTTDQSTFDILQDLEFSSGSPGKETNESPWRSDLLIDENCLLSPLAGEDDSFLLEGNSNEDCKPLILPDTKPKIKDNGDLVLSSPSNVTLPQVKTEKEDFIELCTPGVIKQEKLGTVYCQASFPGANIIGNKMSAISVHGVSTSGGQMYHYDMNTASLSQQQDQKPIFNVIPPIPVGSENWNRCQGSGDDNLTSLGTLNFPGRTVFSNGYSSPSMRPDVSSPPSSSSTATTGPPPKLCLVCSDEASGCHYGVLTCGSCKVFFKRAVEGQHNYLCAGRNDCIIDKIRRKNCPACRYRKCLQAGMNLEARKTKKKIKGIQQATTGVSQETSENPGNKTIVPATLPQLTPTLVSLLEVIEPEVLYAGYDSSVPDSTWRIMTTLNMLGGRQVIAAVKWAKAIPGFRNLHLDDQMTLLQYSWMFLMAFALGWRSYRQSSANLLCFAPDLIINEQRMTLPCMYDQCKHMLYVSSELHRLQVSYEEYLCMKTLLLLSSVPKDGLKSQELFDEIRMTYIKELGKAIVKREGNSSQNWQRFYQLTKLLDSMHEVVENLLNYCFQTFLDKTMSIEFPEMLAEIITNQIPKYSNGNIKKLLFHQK

Compound: CC#C[C@]1(O)CC[C@H]2[C@@H]3CCC4=CC(=O)CCC4=C3[C@@H](c3ccc(N(C)C)cc3)C[C@@]21C [RU-486, mifepristone]
- in vivo growth ([1]; MFP 6 mg pellet, p<0.05): inhibited
- expression of MYC ([1]; western blot, p<0.01): significantly inhibited
- expression of CCND1 ([1]; western blot, p<0.05): significantly inhibited
- antiglucocorticoid activity [2]: antiglucocorticoid effects, albeit at concentrations higher than those needed for its antiprogestin activity
